Laboratory results published in patent US6346529B1, “Antiviral therapy using thiazine dyes” (Oklahoma Medical Research Foundation, priority 1988, dated 2002).
Where two headings read alike, the source gives them in different places.

What was measured:
[1] = CEM cell proliferation (cytotoxicity) assay; type: cell-based; conditions: human
Experimental: (§1) PBM and CEM Cells Proliferation Assay: The drugs were evaluated for their potential toxic effects on uninfected PHA-stimulated human PBM cells and also in CEM cells. The cells were cultured with and without drug for 6 days at which time aliquots were counted for cell viability as described above. Median-Effect Method: EC50 and IC50 values were obtained by analysis of the data using the median-effect equation (Chou, T., et al., “Quantitative Analysis of Dose-Effect Relationships: The Combined Effects of Multiple Drugs or Enzyme Inhibitors,” Adv. Enz. Regul. 22, 27-55 (1984).

[2] = PBM cell proliferation (cytotoxicity) assay; type: cell-based; conditions: human
Experimental: as §1

[3] = system: nucleosides of adenine, cytosine, thymine, and guanine; experiment: Methylene blue plus light treatment of nucleosides (HPLC); type: biochemical; conditions: methylene blue plus light 15 min
Experimental: The nucleosides of adenine, cytosine, thymine, and guanine (approximately 200 nmoles each) were also subjected to methylene blue (20 μl into 2.0 mls final total volume) plus light treatment (100 watt incandescent light 11 cm over solution for 15 min).

[4] = Ziv and Heavner 1984; cited from earlier work
RNA virus R17 [5] = experiment: Inactivation of RNA virus R17, plaque titer on E. coli lawn; type: cell-based, R17 phage
HIV (LAV-I) = experiment: HIV in human PBMC, P24 levels by EIA; type: cell-based; conditions: for inhibition at 0.001 µM / inhibition at 0.01 µM / inhibition at 1 µM / inhibition at 10 µM / inhibition at 0.1 µM / EC50: Human immunodeficiency virus 1, PBMC
Experimental: While the previous example measured RT activity, the present example utilizes a direct quantitation of a viral protein (P24) as an indicator of antiviral effectiveness.
Peripheral blood mononuclear (PBM) cells were infected with HIV and treated with methylene blue as described above. The EC50 levels were calculated from enzyme immuno-assay (EIA) measurements of viral coat protein P24. The P24-specific EIA kit was purchased from Abbott Labs.

[6] = cited from earlier work
[7] = biological target: T1, calf thymus DNA polymerase alpha (CT α pol) (Bos taurus, UniProt A0AAA9TD94); experiment: DNA polymerase alpha enzyme assay; type: biochemical
T1 construct: calf thymus DNA polymerase alpha (CT α pol); from tissue; host or cells: calf thymus
From the text: (§2) Enzyme Assays: The preparation of the enzyme and the assay conditions used, were recently described by Schinazi, et al., Antimicrob. Agents Chemother. 33, 115-117 (1989). HIV-1 RT and cellular DNA polymerase alpha were isolated from infected and uninfected PHA-stimulated human PBM cells according to traditional methods (Eriksson, B., et al., Antimicrob. Agents Chemother. 31, 600-604, (1987); Furman, et al., Proc. Natl. Acad. Sci. USA 83, 8333-8337, (1986); Abrell, et al., J. Virol. 12, 431-439, (1973).
(§3) Assays. Reaction mixtures (100 μl) contained:
(§4) The reactions were started by the addition of 10 μl of purified enzyme, incubated at 37° C. for the indicated periods of time and processed as described in Eriksson, et al., Antimicrob. Agents Chemother. 31, 600-604 (1987).
(§5) Median-Effect Method: EC50 and IC50 values were obtained by analysis of the data using the median-effect equation (Chou, T., et al., “Quantitative Analysis of Dose-Effect Relationships: The Combined Effects of Multiple Drugs or Enzyme Inhibitors,” Adv. Enz. Regul. 22, 27-55 (1984).
(§6) The effect of methylene blue on two DNA polymerizing enzymes, HIV reverse transcriptase (RT) and calf thymus DNA polymerase alpha (CT α pol), was also studied.

[8] = biological target: T2, HIV-1 reverse transcriptase (RT) (Human immunodeficiency virus type 1 group M subtype B, UniProt P03367); experiment: HIV-1 reverse transcriptase enzyme assay; type: biochemical
T2 construct: HIV reverse transcriptase (RT); endogenous in cells; host or cells: HIV-1-infected PHA-stimulated human PBM cells
From the text: as §2, §3, §4, §5, §6

RNA virus R17 [9] = experiment: Inactivation of RNA virus R17, plaque titer on E. coli lawn; type: cell-based, R17 phage; conditions: for PFU: MB 0.05 uM
Experimental: Add 20 μl φ (R17 phage) stock to 2.0 ml dilution buffer and dispense 0.3 ml into each of tubes A-F. Next add methylene blue to give concentrations shown in Table 2 below. Pipet 270 μl of samples to be light treated into the #1 wells of a 96 well microtiter plate, corresponding to its letter label A-H. The samples in the microtiter plate were exposed to light through water (¼ cm) deep in a petri dish for 5 minutes. 270 μl of each sample not to be light treated was then added to wells in the plate.
R17 virus samples were also tested to determine the time of exposure of light required to inactivate the virus. […] The length of exposure was varied as follows:
Add 0.3 ml to well H2, treat with light 0-5 min. Add 0.3 ml to well G2, treat with light 5 min-7.5 min. Add 0.3 ml to well F2, treat with light 7.5 min-9.0 min. Add 0.3 ml to well E2, treat with light 9.0 min-9.5 min. Add 0.3 ml to well D2, treat with light 9.5 min-9.9 min. Add 0.3 ml to well C2, treat with light 9.9 min-10.0 min. Add 0.3 ml to well B, no light. Add 0.3 ml to well A, no light.

[10] = sheep, cited from earlier work

T1 sequence (A0AAA9TD94 entry or part of it): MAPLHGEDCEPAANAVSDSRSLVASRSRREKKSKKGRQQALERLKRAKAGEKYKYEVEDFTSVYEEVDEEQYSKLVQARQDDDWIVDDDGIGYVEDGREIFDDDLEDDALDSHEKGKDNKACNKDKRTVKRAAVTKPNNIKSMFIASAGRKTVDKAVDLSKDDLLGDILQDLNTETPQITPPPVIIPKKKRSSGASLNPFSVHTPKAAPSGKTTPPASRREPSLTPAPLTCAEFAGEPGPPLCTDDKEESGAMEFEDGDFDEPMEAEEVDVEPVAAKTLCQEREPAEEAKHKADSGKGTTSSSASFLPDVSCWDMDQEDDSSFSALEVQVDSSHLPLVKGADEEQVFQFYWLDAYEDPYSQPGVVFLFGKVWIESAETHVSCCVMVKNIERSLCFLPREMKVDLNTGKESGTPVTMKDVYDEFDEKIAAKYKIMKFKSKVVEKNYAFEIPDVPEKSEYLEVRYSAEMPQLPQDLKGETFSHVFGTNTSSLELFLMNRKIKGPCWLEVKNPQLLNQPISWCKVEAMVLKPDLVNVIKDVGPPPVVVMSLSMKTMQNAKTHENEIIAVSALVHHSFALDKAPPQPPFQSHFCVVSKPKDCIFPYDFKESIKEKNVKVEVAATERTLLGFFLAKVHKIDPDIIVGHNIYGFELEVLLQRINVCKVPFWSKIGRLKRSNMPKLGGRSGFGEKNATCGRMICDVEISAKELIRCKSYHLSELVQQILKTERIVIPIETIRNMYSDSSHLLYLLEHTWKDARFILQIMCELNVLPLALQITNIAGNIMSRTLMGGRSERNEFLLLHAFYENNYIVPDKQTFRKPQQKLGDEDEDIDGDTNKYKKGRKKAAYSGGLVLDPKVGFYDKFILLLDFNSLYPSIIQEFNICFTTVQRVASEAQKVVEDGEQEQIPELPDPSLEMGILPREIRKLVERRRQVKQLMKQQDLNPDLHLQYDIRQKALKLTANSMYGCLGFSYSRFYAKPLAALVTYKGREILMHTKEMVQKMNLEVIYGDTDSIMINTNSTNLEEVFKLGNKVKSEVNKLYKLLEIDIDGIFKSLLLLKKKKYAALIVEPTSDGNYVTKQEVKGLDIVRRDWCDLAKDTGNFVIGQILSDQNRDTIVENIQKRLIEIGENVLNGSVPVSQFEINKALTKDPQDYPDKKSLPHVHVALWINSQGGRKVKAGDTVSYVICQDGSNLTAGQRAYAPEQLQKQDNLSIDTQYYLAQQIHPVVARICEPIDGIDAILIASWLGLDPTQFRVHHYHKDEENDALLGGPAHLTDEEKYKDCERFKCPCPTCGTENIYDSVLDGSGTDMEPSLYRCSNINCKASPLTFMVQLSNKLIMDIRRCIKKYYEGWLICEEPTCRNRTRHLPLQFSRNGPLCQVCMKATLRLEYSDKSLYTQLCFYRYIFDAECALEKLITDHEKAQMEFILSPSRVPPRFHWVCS

## Nc1nc2c(ncn2COCCO)c(=O)[nH]1 [ACV, Acyclovir]
[1]
  IC50 at 6 days: > 100 µM
[2]
  IC50 at 6 days: > 100 µM

## CN(C)c1ccc2nc3ccc(N(C)C)cc3[s+]c2c1.[Cl-] [MB, 3,7-Bis(dimethylamino)phenothiazin-5-ium chloride]
[3]
  formation of hydroxylated derivative from nucleosides: Only deoxyguanosine reacted to form the hydroxylated derivative
[4]
  crossing of the blood-milk barrier: crosses the blood-milk barrier easily
RNA virus R17 [5]; 0.02 μM methylene blue plus light for 15 min
  inactivation of R17 (ability to form plaques): causes inactivation of R17
RNA virus R17 [5]; MB 0.05 uM, light 1.0 min
  PFU: 1.0 × 10^9/ml PFU/ml
HIV (LAV-I); Dark, 0.001 μM
  ng P24/ml: 356.0 ng P24/ml
HIV (LAV-I); Dark, 0.01 μM
  ng P24/ml: 270.2 ng P24/ml
HIV (LAV-I); Dark, 1 μM
  ng P24/ml: 84.1 ng P24/ml
HIV (LAV-I); Dark, 10 μM
  ng P24/ml: 5.4 ng P24/ml
HIV (LAV-I); Dark, .1 μM
  ng P24/ml: 287.2 ng P24/ml
HIV (LAV-I); read-out: % Inhibition (corrected), Dark, 0.001 μM
  inhibition at 0.001 µM: 0.8%
HIV (LAV-I); read-out: % Inhibition (corrected), Dark, 0.01 μM
  inhibition at 0.01 µM: 24.7%
HIV (LAV-I); read-out: % Inhibition (corrected), Dark, 1 μM
  inhibition at 1 µM: 76.6%
HIV (LAV-I); read-out: % Inhibition (corrected), Dark, 10 μM
  inhibition at 10 µM: 98.5%
HIV (LAV-I); read-out: % Inhibition (corrected), Dark, .1 μM
  inhibition at 0.1 µM: 20%
HIV (LAV-I); read-out: % Inhibition (corrected), Light, 0.001 μM
  inhibition at 0.001 µM: -3.2%
HIV (LAV-I); read-out: % Inhibition (corrected), Light, 0.01 μM
  inhibition at 0.01 µM: -3.2%
HIV (LAV-I); read-out: % Inhibition (corrected), Light, 1 μM
  inhibition at 1 µM: 98.6%
HIV (LAV-I); read-out: % Inhibition (corrected), Light, 10 μM
  inhibition at 10 µM: 99.4%
HIV (LAV-I); read-out: % Inhibition (corrected), Light, .1 μM
  inhibition at 0.1 µM: 15.8%
HIV (LAV-I); read-out: EC50 (P24), Dark
  EC50: 0.33 µM
HIV (LAV-I); read-out: EC50 (P24), Light
  EC50: 0.024 µM
HIV (LAV-I); Light, 0.001 μM
  ng P24/ml: 370.5 ng P24/ml
HIV (LAV-I); Light, 0.01 μM
  ng P24/ml: 370.5 ng P24/ml
HIV (LAV-I); Light, 1 μM
  ng P24/ml: 5.1 ng P24/ml
HIV (LAV-I); Light, 10 μM
  ng P24/ml: 2.2 ng P24/ml
HIV (LAV-I); Light, .1 μM
  ng P24/ml: 302.2 ng P24/ml
[6]; American Hospital Formulary Service
  absorption from the GI tract: absorbed well from the GI tract
[6]; mostly as leukomethylene blue
  excreted in urine and via the bile: about 75%
[7]; Dark
  IC50: 105 µM
[7]; Light
  IC50: 125 µM
[8]; Dark
  IC50: 10 µM
[8]; Light
  IC50: 9.2 µM
RNA virus R17 [9]; 0.05 μM methylene blue
  light exposure inactivating infectivity 50%: 45 s
RNA virus R17 [9]; MB 0.02 uM, light 5′ yes
  pfu/ml: 5.04 × 10^10 pfu/ml
RNA virus R17 [9]; MB 0.04 uM, light 5′ yes
  pfu/ml: 1.11 × 10^10 pfu/ml
RNA virus R17 [9]; MB 0.05 uM and light
  t½ of R17 inactivation: 48 to 60 s
RNA virus R17 [9]; light 0.1 min
  PFU: 3.3 × 10^9/ml PFU/ml
RNA virus R17 [9]; light 0.5 min
  PFU: 5.0 × 10^9/ml PFU/ml
RNA virus R17 [9]; light 2.5 min
  PFU: 9.1 × 10^7/ml PFU/ml
RNA virus R17 [9]; light 5.0 min
  PFU: 6.93 × 10^7/ml PFU/ml
RNA virus R17 [9]; light exposure none
  PFU: 2.76 × 10^9/ml PFU/ml
RNA virus R17 [9]; MB 0.2 uM, light 5′ yes
  pfu/ml: 3.25 × 10^5 pfu/ml
RNA virus R17 [9]; MB 2.0 uM, light 5′ yes
  pfu/ml: 3.00 × 10^3 pfu/ml
RNA virus R17 [9]; MB 2.0 uM, light no
  pfu/ml: 4.80 × 10^10 pfu/ml
RNA virus R17 [9]; MB 20.0 uM, light 5′ yes
  pfu/ml: 4.20 × 10^4 pfu/ml
RNA virus R17 [9]; MB 20.0 uM, light no
  pfu/ml: 3.00 × 10^9 pfu/ml
[10]; doses as high as 50 mg/kg
  methemoglobin production: minimal methemoglobin production
[10]; up to four weeks after a total dose of 30 mg/kg
  hematologic changes: no hematologic changes
[10]
  overall elimination rate constant: 0.0076 ± 0.016 min⁻¹
